Measured values published in the supplement of paper PMC10307832.

Tests used:
Test in all cases: relative viability (nuclei count vs DMSO), 5 days (fraction); higher = more cells survive
LC-2-ad = test system: LC-2-ad
Method in brief: (§1)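 Nuclei were stained with Hoechst during a one-step fixation (final 0.05% Triton X-100, 1% formaldehyde, 1 ug/ml Hoechst) carried out 5 days after dosing, then counted on 4× images. The cells, lung cancer lines in 1536-well plates, had been dosed by pin tool the day after seeding with one drug alone or a fixed anchor-drug dose plus five library-drug doses (not always all listed) in √10 steps. Relative viability is the nuclei count in treated wells divided by that in vehicle wells, and each value is the median of duplicate plates.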

LU99A = test system: LU99A
Method in brief: as §1

NCI-H1793 = test system: NCI-H1793
Method in brief: as §1

NCI-H650 = test system: NCI-H650
Method in brief: as §1

A-427 = test system: A-427
Method in brief: as §1

NCI-H838 = test system: NCI-H838
Method in brief: as §1

NCI-H2228 = test system: NCI-H2228
Method in brief: as §1

LOU-NH91 = test system: LOU-NH91
Method in brief: as §1

SW 1573 = test system: SW 1573
Method in brief: as §1

RERF-LC-KJ = test system: RERF-LC-KJ
Method in brief: as §1

NCI-H460 = test system: NCI-H460
Method in brief: as §1

NCI-H1666 = test system: NCI-H1666
Method in brief: as §1

NCI-H1993 = test system: NCI-H1993
Method in brief: as §1

NCI-H1915 = test system: NCI-H1915
Method in brief: as §1

PC-3 [JPC-3] = test system: PC-3 [JPC-3]
Method in brief: as §1

NCI-H520 = test system: NCI-H520
Method in brief: as §1

IA-LM = test system: IA-LM
Method in brief: as §1

NCI-H1650 = test system: NCI-H1650
Method in brief: as §1

NCI-H1355 = test system: NCI-H1355
Method in brief: as §1

EKVX = test system: EKVX
Method in brief: as §1

NCI-H2347 = test system: NCI-H2347
Method in brief: as §1

LCLC-97TM1 = test system: LCLC-97TM1
Method in brief: as §1

BEN = test system: BEN
Method in brief: as §1

NCI-H23 = test system: NCI-H23
Method in brief: as §1

Work on `CCCCCCCCCCCC1=C(O)C(=O)C=C(O)C1=O` [Embelin] + CS(=O)(=O)N1CCN(Cc2cc3nc(-c4cccc5[nH]ncc45)nc(N4CCOCC4)c3s2)CC1 [Pictilisib] (partner 1 µM) yielded a relative viability (LC-2-ad; first compound 0.08 µM) of 0.458, a relative viability (LC-2-ad; first compound 0.8 µM) of 0.566 and a relative viability (LC-2-ad; first compound 2.53 µM) of 0.618. The relative viability (LC-2-ad; first compound 8 µM) was 0.392, the relative viability (LU99A; first compound 0.08 µM) was 0.393 and the relative viability (LU99A; first compound 0.8 µM) was 0.334. For the same molecule, the relative viability (LU99A; first compound 2.53 µM) was 0.357, the relative viability (LU99A; first compound 8 µM) was 0.281 and the relative viability (NCI-H1793; first compound 0.08 µM) was 0.344. The relative viability (NCI-H1793; first compound 0.8 µM) was 0.366, the relative viability (NCI-H1793; first compound 2.53 µM) was 0.361 and the relative viability (NCI-H1793; first compound 8 µM) was 0.218. It also gave a relative viability (NCI-H650; first compound 0.08 µM) of 0.939, a relative viability (NCI-H650; first compound 0.8 µM) of 1.1 and a relative viability (NCI-H650; first compound 2.53 µM) of 1.06. For the same molecule, the relative viability (NCI-H650; first compound 8 µM) was 0.896, the relative viability (A-427; first compound 0.08 µM) was 0.857 and the relative viability (A-427; first compound 0.8 µM) was 0.862. For the same molecule, the relative viability (A-427; first compound 2.53 µM) was 0.654, the relative viability (A-427; first compound 8 µM) was 0.656 and the relative viability (NCI-H838; first compound 0.08 µM) was 0.49. The relative viability (NCI-H838; first compound 0.8 µM) was 0.573, the relative viability (NCI-H838; first compound 2.53 µM) was 0.43 and the relative viability (NCI-H838; first compound 8 µM) was 0.479. For the same molecule, the relative viability (NCI-H2228; first compound 0.08 µM) was 0.476, the relative viability (NCI-H2228; first compound 0.8 µM) was 0.375 and the relative viability (NCI-H2228; first compound 2.53 µM) was 0.457. The relative viability (NCI-H2228; first compound 8 µM) was 0.366, the relative viability (LOU-NH91; first compound 0.08 µM) was 0.543 and the relative viability (LOU-NH91; first compound 0.8 µM) was 0.597. The relative viability (LOU-NH91; first compound 2.53 µM) was 0.552, the relative viability (LOU-NH91; first compound 8 µM) was 0.459 and the relative viability (SW 1573; first compound 0.08 µM) was 0.475. For the same molecule, the relative viability (SW 1573; first compound 0.8 µM) was 0.546, the relative viability (SW 1573; first compound 2.53 µM) was 0.555 and the relative viability (SW 1573; first compound 8 µM) was 0.527. For the same molecule, the relative viability (RERF-LC-KJ; first compound 0.08 µM) was 0.494, the relative viability (RERF-LC-KJ; first compound 0.8 µM) was 0.652 and the relative viability (RERF-LC-KJ; first compound 2.53 µM) was 0.618. It also gave a relative viability (RERF-LC-KJ; first compound 8 µM) of 0.587, a relative viability (NCI-H460; first compound 0.08 µM) of 0.377 and a relative viability (NCI-H460; first compound 0.8 µM) of 0.409. For the same molecule, the relative viability (NCI-H460; first compound 2.53 µM) was 0.476, the relative viability (NCI-H460; first compound 8 µM) was 0.48 and the relative viability (NCI-H1666; first compound 0.08 µM) was 0.482. It also gave a relative viability (NCI-H1666; first compound 0.8 µM) of 0.549, a relative viability (NCI-H1666; first compound 2.53 µM) of 0.365 and a relative viability (NCI-H1666; first compound 8 µM) of 0.403. It also gave a relative viability (NCI-H1993; first compound 0.08 µM) of 0.729, a relative viability (NCI-H1993; first compound 0.8 µM) of 0.733 and a relative viability (NCI-H1993; first compound 2.53 µM) of 0.776. The relative viability (NCI-H1993; first compound 8 µM) was 0.803, the relative viability (NCI-H1915; first compound 0.08 µM) was 1.06 and the relative viability (NCI-H1915; first compound 0.8 µM) was 1.08. For the same molecule, the relative viability (NCI-H1915; first compound 2.53 µM) was 0.952, the relative viability (NCI-H1915; first compound 8 µM) was 0.919 and the relative viability (PC-3 [JPC-3]; first compound 0.08 µM) was 0.733. It also gave a relative viability (PC-3 [JPC-3]; first compound 0.8 µM) of 0.759, a relative viability (PC-3 [JPC-3]; first compound 2.53 µM) of 0.787 and a relative viability (PC-3 [JPC-3]; first compound 8 µM) of 0.669. For the same molecule, the relative viability (NCI-H520; first compound 0.08 µM) was 0.346, the relative viability (NCI-H520; first compound 0.8 µM) was 0.386 and the relative viability (NCI-H520; first compound 2.53 µM) was 0.418. The relative viability (NCI-H520; first compound 8 µM) was 0.361, the relative viability (IA-LM; first compound 0.08 µM) was 0.367 and the relative viability (IA-LM; first compound 0.8 µM) was 0.326. The relative viability (IA-LM; first compound 2.53 µM) was 0.383, the relative viability (IA-LM; first compound 8 µM) was 0.249 and the relative viability (NCI-H1650; first compound 0.08 µM) was 0.695. For the same molecule, the relative viability (NCI-H1650; first compound 0.8 µM) was 0.715, the relative viability (NCI-H1650; first compound 2.53 µM) was 0.632 and the relative viability (NCI-H1650; first compound 8 µM) was 0.504. For the same molecule, the relative viability (NCI-H1355; first compound 0.08 µM) was 0.501, the relative viability (NCI-H1355; first compound 0.8 µM) was 0.601 and the relative viability (NCI-H1355; first compound 2.53 µM) was 0.4. It also gave a relative viability (NCI-H1355; first compound 8 µM) of 0.273, a relative viability (EKVX; first compound 0.08 µM) of 0.481 and a relative viability (EKVX; first compound 0.8 µM) of 0.437. The relative viability (EKVX; first compound 2.53 µM) was 0.406, the relative viability (EKVX; first compound 8 µM) was 0.501 and the relative viability (NCI-H2347; first compound 0.08 µM) was 0.64. For the same molecule, the relative viability (NCI-H2347; first compound 0.8 µM) was 0.886, the relative viability (NCI-H2347; first compound 2.53 µM) was 0.924 and the relative viability (NCI-H2347; first compound 8 µM) was 0.592. It also gave a relative viability (LCLC-97TM1; first compound 0.8 µM) of 0.21, a relative viability (LCLC-97TM1; first compound 2.53 µM) of 0.184 and a relative viability (LCLC-97TM1; first compound 8 µM) of 0.122. It also gave a relative viability (BEN; first compound 0.08 µM) of 0.583, a relative viability (BEN; first compound 0.8 µM) of 0.704 and a relative viability (BEN; first compound 2.53 µM) of 0.743. The relative viability (BEN; first compound 8 µM) was 0.556, the relative viability (NCI-H23; first compound 0.08 µM) was 0.51 and the relative viability (NCI-H23; first compound 0.8 µM) was 0.573. The relative viability (NCI-H23; first compound 2.53 µM) was 0.475 and the relative viability (NCI-H23; first compound 8 µM) was 0.479.
